Reference: patent publication US20200390100A1, “SUBSTITUTED N-HETEROCYCLYL- AND N-HETEROARYL-TETRAHYDROPYRIMIDINONES AND THE SALTS THEREOF, AND THE USE OF SAME AS HERBICIDAL ACTIVE SUBSTANCES” (Bayer Aktiengesellschaft, priority 2017, published 2020)

How the values were obtained:
Abutilon theophrasti [1] = assay: Pre-emergence herbicidal action, greenhouse, 320 g/ha; type: in vivo; details: application rate 320 g/ha, scored visually after about 3 weeks vs untreated controls
Procedure, shortened: (§1)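 Test substances, formulated as wettable powders or emulsion concentrates, are applied to the soil covering the seeds in water containing 0.5% additive. Scoring after roughly three weeks is visual and expressed in percent relative to untreated controls.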

Alopecurus myosuroides = assay: as above; type: in vivo; details: application rate 320 g/ha, scored visually after about 3 weeks vs untreated controls
Procedure, shortened: as §1

Amaranthus retroflexus [2] = assay: as above; type: in vivo; details: application rate 320 g/ha, scored visually after about 3 weeks vs untreated controls
Procedure, shortened: as §1

Avena fatua = assay: as above; type: in vivo; details: application rate 320 g/ha, scored visually after about 3 weeks vs untreated controls
Procedure, shortened: as §1

Echinochloa crus-galli [3] = assay: as above; type: in vivo; details: application rate 320 g/ha, scored visually after about 3 weeks vs untreated controls
Procedure, shortened: as §1

Hordeum murinum = assay: as above; type: in vivo; details: application rate 320 g/ha, Table B14
Procedure, shortened: as §1

Matricaria inodora [4] = assay: as above; type: in vivo; details: application rate 320 g/ha, scored visually after about 3 weeks vs untreated controls
Procedure, shortened: as §1

Pharbitis purpurea [5] = assay: as above; type: in vivo; details: application rate 320 g/ha, Table B12
Procedure, shortened: as §1

Polygonum convolvulus = assay: as above; type: in vivo; details: application rate 320 g/ha, scored visually after about 3 weeks vs untreated controls
Procedure, shortened: as §1

Setaria viridis [6] = assay: as above; type: in vivo; details: application rate 320 g/ha, Table B11
Procedure, shortened: as §1

Stellaria media [7] = assay: as above; type: in vivo; details: application rate 320 g/ha, scored visually after about 3 weeks vs untreated controls
Procedure, shortened: as §1

Viola tricolor = assay: as above; type: in vivo; details: application rate 320 g/ha, Table B8
Procedure, shortened: as §1

photosystem II (PS II) = molecular target: T1, photosystem II (PS II) (Spinacia oleracea, UniProt P69560); assay: Measurement of PS II activity in thylakoid membranes (DCPIP reduction); type: biochemical, spinach; details: PS II activity in spinach thylakoid membranes, Table E1; read-out: Effect
T1 construct: the chloroplasts were osmotically ruptured and the thylakoid membranes were then obtained by centrifugation; from tissue; host or cells: fresh spinach leaves; thylakoid membrane preparation from isolated chloroplasts
Procedure: Cooled fresh spinach leaves were comminuted and homogenized in 50 mM phosphate buffer, pH 6.8. 10 mM KCl, 0.34 M sucrose (sucrose buffer) (blender, 1 g of plant material/ml). The homogenate was subsequently filtered through 4 layers of Miracloth and the chloroplasts were isolated by centrifugation, i.e. 10 min of centrifugation at 4400×g (4° C.). The sediment was suspended in 25 ml of sucrose buffer and re-centrifuged for 10 min at 4400×g (4° C.). The sediment was then suspended in 40 ml of 50 mM phosphate buffer, pH 6.8, 10 mM KCl, without sucrose. In this step, the chloroplasts were osmotically ruptured and the thylakoid membranes were then obtained by centrifugation (10 min, 4400×g, 4° C.). The membrane sediment was finally suspended in about 20 ml of 50 mM phosphate buffer, pH 6.8, 10 mM KCl. Following protein determination and activity determination, the membrane suspension was divided into aliquots and frozen in liquid nitrogen. The aliquots were stored at −80° C. Under these conditions, the photosystem II preparation was storage stable for at least three months. The activity determination of photosystem II (PS II) was then carried out using the following test principle: The electron transfer from PS II to an artificial electron acceptor, 2,6-dichlorophenolindophenol (DCPIP), was measured with exposure to light. The concentration of the blue oxidized form of DCPIP was determined spectrophotometrically at wavelength λ=595 nm. […] The activity determination is carried out in microtiter plates (96 cavities) in a reaction volume of 200 μl. Here, 155 μl of dilute membrane suspension were initially charged in 50 mM of phosphate buffer, pH 6.8, 10 mM KCl. Depending on the activity of the PS II preparation, the dilution was adjusted such that the measurement of the decrease in absorption (λ=595 nm) was linear for at least 10 min. In each case 5 μl solutions of the test compounds of a concentration of 100 μM in DMSO were added to the enzyme suspension; controls contained 5 μl of DMSO; the final concentration of DMSO in the reaction batch was thus 2.5% (v/v); this concentration had no adverse effect on the enzymatic activity. On each microtiter plate, a known PS II inhibitor, for example metribuzin, was used as standard, which allowed the quality of the PS II test to be assessed. The reaction was started by addition of 40 μl DCPIP solution (600 μM in distilled water); the final concentration of DCPIP was 120 μM. Measurement of absorption is carried out over a period of 10 min at 22° C. and with exposure to light. Using metribuzin as comparative substance, the results for the efficacy of the compounds of the general formula (I) at 100 μM are stated in the table below using the following classification: ++++(inhibition≥90%), +++(90%>inhibition≥70%), ++(70%>inhibition≥50%), +(50%>inhibition≥30%).

Amaranthus retroflexus [8] = assay: Herbicidal post-emergence action (Part 2), 1280 g/ha; type: in vivo; details: application rate 1280 g/ha, rated visually after about 3 weeks, Table C5
Procedure, shortened: (§2)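 Percent activity (100% = plants dead, 0% = as untreated) scored visually about 3 weeks after spraying. Plants were sown in sandy loam, grown in greenhouse and sprayed at one-leaf stage, 2-3 weeks post-sowing, with aqueous WP/EC preparations containing 0.5% additive at 600 L/ha.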

Stellaria media [9] = assay: as above; type: in vivo; details: application rate 1280 g/ha, rated visually after about 3 weeks, Table C7
Procedure, shortened: as §2

Amaranthus retroflexus [10] = assay: Herbicidal pre-emergence action (Part 2), 1280 g/ha; type: in vivo; details: application rate 1280 g/ha, scored visually after about 3 weeks, Table D6
Procedure, shortened: (§3)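 Visual percent activity relative to untreated plants (0% = like control, 100% = plants died) was rated about 3 weeks after treatment. Compounds formulated as WP or EC were applied at 1280 g/ha onto covering soil over freshly sown weeds, in 600 L/ha spray water with 0.5% additive, with greenhouse growth.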

Lolium rigidum = assay: as above; type: in vivo; details: application rate 1280 g/ha, scored visually after about 3 weeks, Table D2
Procedure, shortened: as §3

Matricaria inodora [11] = assay: as above; type: in vivo; details: application rate 1280 g/ha, scored visually after about 3 weeks, Table D7
Procedure, shortened: as §3

Poa annua [12] = assay: as above; type: in vivo; details: application rate 1280 g/ha, scored visually after about 3 weeks, Table D3
Procedure, shortened: as §3

Stellaria media [13] = assay: as above; type: in vivo; details: application rate 1280 g/ha, scored visually after about 3 weeks, Table D8
Procedure, shortened: as §3

Abutilon theophrasti [14] = assay: Herbicidal post-emergence action (Part 2), 1280 g/ha; type: in vivo; details: application rate 1280 g/ha, rated visually after about 3 weeks, Table C4
Procedure, shortened: as §2

Echinochloa crus-galli [15] = assay: as above; type: in vivo; details: post-emergence (Part 2), application rate 1280 g/ha, rated visually after about 3 weeks vs untreated controls
Procedure, shortened: as §2

Abutilon theophrasti [16] = assay: Herbicidal pre-emergence action (Part 2), 1280 g/ha; type: in vivo; details: application rate 1280 g/ha, scored visually after about 3 weeks, Table D5
Procedure, shortened: as §3

Abutilon theophrasti [17] = assay: Post-emergence herbicidal action, greenhouse, 320 g/ha; type: in vivo; details: application rate 320 g/ha, rated visually after about 3 weeks vs untreated controls
Procedure, shortened: (§4)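 Plants treated post-emergence at the one-leaf stage, 2 to 3 weeks after sowing in sandy loam, with WP or EC formulations plus 0.5% additive at 320 g/ha. Visual rating about 3 weeks later versus untreated controls (100% = dead, 0% = like control).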

Amaranthus retroflexus [18] = assay: as above; type: in vivo; details: application rate 320 g/ha, rated visually after about 3 weeks vs untreated controls
Procedure, shortened: as §4

Pharbitis purpurea [19] = assay: as above; type: in vivo; details: application rate 320 g/ha, rated visually after about 3 weeks vs untreated controls
Procedure, shortened: as §4

Echinochloa crus-galli [20] = assay: Herbicidal pre-emergence action (Part 2), 1280 g/ha; type: in vivo; details: application rate 1280 g/ha, scored visually after about 3 weeks, Table D1
Procedure, shortened: as §3

Setaria viridis [21] = assay: as above; type: in vivo; details: application rate 1280 g/ha, scored visually after about 3 weeks, Table D4
Procedure, shortened: as §3

Matricaria inodora [22] = assay: Herbicidal post-emergence action (Part 2), 1280 g/ha; type: in vivo; details: application rate 1280 g/ha, rated visually after about 3 weeks, Table C6
Procedure, shortened: as §2

Poa annua [23] = assay: as above; type: in vivo; details: application rate 1280 g/ha, rated visually after about 3 weeks, Table C2
Procedure, shortened: as §2

Digitaria sanguinalis = assay: Post-emergence herbicidal action, greenhouse, 320 g/ha; type: in vivo; details: application rate 320 g/ha, rated visually after about 3 weeks vs untreated controls
Procedure, shortened: as §4

Matricaria inodora [24] = assay: as above; type: in vivo; details: application rate 320 g/ha, rated visually after about 3 weeks vs untreated controls
Procedure, shortened: as §4

Setaria viridis [25] = assay: as above; type: in vivo; details: application rate 320 g/ha, rated visually after about 3 weeks vs untreated controls
Procedure, shortened: as §4

Stellaria media [26] = assay: as above; type: in vivo; details: application rate 320 g/ha, rated visually after about 3 weeks vs untreated controls
Procedure, shortened: as §4

SMILES	Abutilon theophrasti (efficacy in %) (Abutilon theophrasti [1])	Amaranthus retroflexus (efficacy in %) (Amaranthus retroflexus [2])	Avena fatua (efficacy in %) (Avena fatua)	Polygonum convolvulus (efficacy in %) (Polygonum convolvulus)	Stellaria media (efficacy in %) (Stellaria media [7])	Viola tricolor (efficacy in %) (Viola tricolor)	Amaranthus retroflexus (Amaranthus retroflexus [8])	Stellaria media (Stellaria media [9])	Amaranthus retroflexus (Amaranthus retroflexus [10])	Lolium rigidum (Lolium rigidum)	Matricaria inodora (Matricaria inodora [11])	Poa Annua (Poa annua [12])	Stellaria media (Stellaria media [13])	Abutilon theophrasti (Abutilon theophrasti [14])	Echinochloa crus-galli (Echinochloa crus-galli [15])	Abutilon theophrasti (Abutilon theophrasti [16])	Abutilon theophrasti (efficacy in %) (Abutilon theophrasti [17])	Amaranthus retroflexus (efficacy in %) (Amaranthus retroflexus [18])	Echinochloa crus-galli (Echinochloa crus-galli [20])	Setaria viridis (Setaria viridis [21])	also measured
CN1CCC(O)N(c2cc(C(C)(C)C)on2)C1=O (centres unmarked) [I.1-162, 3-(5-tert-Butyl-1,2-oxazol-3-yl)-4-hydroxy-1-methyltetrahydropyrimidin-2(1H)-one]	100%	100%	90%	90%	90%	90%															Alopecurus myosuroides (efficacy in %) (Alopecurus myosuroides): 90%; Echinochloa crus-galli (efficacy in %) (Echinochloa crus-galli [3]): 80%; Hordeum murinum (efficacy in %) (Hordeum murinum): 90%; Matricaria inodora (efficacy in %) (Matricaria inodora [4]): 100%; Pharbitis purpurea (efficacy in %) (Pharbitis purpurea [5]): 80%; Setaria viridis (efficacy in %) (Setaria viridis [6]): 90%; inhibition at 100 µM (photosystem II (PS II)): > 90%
CC(=O)OC1CCN(C)C(=O)N1c1cc(C(F)(F)F)ccn1 (centres unmarked) [I.2-449]							100%	100%	100%	90%	100%	100%	100%								
CC(C)CC(=O)OC1CCN(C)C(=O)N1c1cc(C(C)(C)C)no1 (centres unmarked) [I.7-290]							100%		100%		100%	90%	100%	100%	100%	100%					
CC(C)(C)c1cc(N2C(=O)N3CCCC3CC2O)no1 (centres unmarked) [I.121-162]									100%	90%	100%	100%	100%			100%	80%	100%	100%	100%	Pharbitis purpurea (efficacy in %) (Pharbitis purpurea [19]): 80%
CCCC(=O)OC1CC2CCCN2C(=O)N1c1cc(C(C)(C)C)on1 (centres unmarked) [I.126-162]							100%	100%	100%	100%	100%	100%	100%	100%	90%	100%			100%	100%	Matricaria inodora (Matricaria inodora [22]): 100%; Poa Annua (Poa annua [23]): 100%
CN1CC(F)(F)C(O)N(c2cc(C(C)(C)C)on2)C1=O (centres unmarked) [I.141-162]	90%	100%	80%	90%	100%	90%											100%	90%			Digitaria sanguinalis (efficacy in %) (Digitaria sanguinalis): 100%; Matricaria inodora (efficacy in %) (Matricaria inodora [24]): 80%; Setaria viridis (efficacy in %) (Setaria viridis [25]): 100%; Stellaria media (efficacy in %) (Stellaria media [26]): 100%
